Earlier results in patent publication US20050282838A1, “Compounds, compositions, and methods” (priority 2003, published 2005).

Test system: A549 cells
Conditions: data provided by National Cancer Institute

Compound | GI50 [µM]
O=c1[nH]cc(F)c(=O)[nH]1 [5-fluorouracil] | 1
COc1cccc2c1C(=O)c1c(O)c3c(c(O)c1C2=O)C[C@@](O)(C(=O)CO)C[C@@H]3O[C@H]1C[C@H](N)[C@H](O)[C@H](C)O1 [doxorubicin] | 0.063
NC(=O)NO [hydroxyurea] | 500
CC(=O)O[C@H]1C(=O)[C@@]2(C)[C@H]([C@H](OC(=O)c3ccccc3)[C@]3(O)C[C@H](OC(=O)[C@H](O)[C@@H](NC(=O)c4ccccc4)c4ccccc4)C(C)=C1C3(C)C)[C@]1(OC(C)=O)CO[C@@H]1C[C@@H]2O [paclitaxel] | 0.004
